Seven molecules from paper PMC12714728, “VHH antibody loop guides design of a synthetic macrocyclic peptide that potently blocks influenza virus membrane fusion” (npj Viruses, 2025) can be followed below.

Starred links: 1 amine or outer side, 2 acyl side, 3 side chain; linkers in the order of their positions; H or OH if unused. Positions of bridges follow the written chain, without caps; N, C: chain ends. Residues, ends and D or L forms follow the SMILES beside them. Suc = O=C(CCC(=O)[*:2])[*:1]

The test system of data set [1] is H1/Cal HA (A/California/07/2009 (H1N1)). The data set is classed as binding, influenza A virus.
The test system of data set [2] is H1/NCa HA (A/New Caledonia/20/1999 (H1N1)). The data set is classed as binding, influenza A virus.
The subject of data set [3] is H5/Viet HA (A/Vietnam/1203/2004 (H5N1)). The data set is classed as binding, influenza A virus.
Data set [4] relates to H1N1 A/Brisbane/59/2007 (H1/Bri) HA. The data set is classed as biochemical, influenza A virus. The following applies: pH 5.25.
The nature of data set [5]: In vitro cell permeability assay. The following applies: for Papp B→A at 120 min, 5 µM / efflux ratio at 120 min, 30 nM / Papp B→A at 120 min, 30 nM: LLC-Parent; for Papp B→A at 120 min, 5 µM / Papp B→A at 120 min, 30 nM: basolateral to apical.
The next data set deals with P-gp (MDR1). Description: In vitro cell permeability / P-gp substrate assay. Conditions: pig; for Papp A→B at 120 min, 5 µM / Papp A→B at 120 min, 30 nM: LLC-MDR1, apical to basolateral; for Papp B→A at 120 min, 5 µM / Papp B→A at 120 min, 30 nM: LLC-MDR1, basolateral to apical.
The target of data set [6] is group 1 H1/Cal, H1/NCa, and H5/Viet HAs. The data set is classed as binding, influenza A virus. The following applies: for Kd: read-out: KD by SPR (range over HAs).
Data set [7] relates to group 1 H1/Cal, H1/NCa, and H5/Viet HAs. The data set is classed as binding, influenza A virus. The following applies: read-out: IC50 in AlphaLISA (range over HAs). On the technique in general: In Alpha technology, singlet oxygen from a donor bead excites a nearby acceptor bead.
Data set [8] relates to H5/Viet virus (A/Vietnam/1203/2004 (H5N1)).
Data set [9] deals with HAs from group 2 and influenza B viruses. The data set is classed as binding, influenza A and B viruses.
Where [10] appears, read: pig, LLC-PK1, pH 7.4, Papp BA, no inhibitor.
The mark [11] stands for this setting: LLC-PK1, pH 7.4, Papp AB, no inhibitor.
Setting [12] is: LLC-PK1, pH 7.4, Papp BA, no inhibitor.

As for `CSCC[C@@H]1NC(=O)CNC(=O)CNC(=O)[C@H](C)NC(=O)[C@H](C(C)C)NC(=O)CNC(=O)[C@H](CC(C)C)NC(=O)[C@@H]2CCCN2C(=O)[C@H](CC(=O)O)NC(=O)[C@H](CCC(=O)O)NC(=O)[C@H](Cc2ccc(O)cc2)NC(=O)[C@H](CC(C)C)NC(=O)CNC1=O` [CP14], the IC50 was 1720 ± 240 nM in data set [1], 1240 ± 150 nM in [2], 10000 ± 910 nM in data set [3] and 1240 ± 30 nM in data set [4]. In [5] (LLC-PK1), the recovery is 96.5%. Moreover, the Papp A→B at 120 min, 5 µM in data set [5] (pig, LLC-PK1, pH 7.4) worked out at 0.11 ×10⁻⁶ cm/s; in the data set with P-gp (MDR1) (setting [11]), 0.26 ± 0.04 ×10⁻⁶ cm/s; in the data set on P-gp (MDR1) (LLC-PK1, pH 7.4, with 5 µM GF120918 (elacridar), Papp AB, + 5 µM GF120918) it was 0.25 ± 0.01 ×10⁻⁶ cm/s. In addition, the Papp B→A at 120 min, 5 µM worked out at 0.12 ± 0.01 ×10⁻⁶ cm/s in data set [5] (setting [10]); 0.11 ± 0.01 ×10⁻⁶ cm/s in [5] (pig, LLC-PK1, pH 7.4, with 5 µM GF120918 (elacridar), Papp BA, + 5 µM GF120918); 0.32 ± 0.05 ×10⁻⁶ cm/s in the data set with P-gp (MDR1) (setting [12]); 0.33 ± 0.05 ×10⁻⁶ cm/s in the data set with P-gp (MDR1) (LLC-PK1, pH 7.4, with 5 µM GF120918 (elacridar), Papp BA, + 5 µM GF120918).

As for `CSCC[C@@H]1NC(=O)CNC(=O)CNC(=O)[C@H](C)NC(=O)[C@H](C(C)C)NC(=O)CNC(=O)[C@H](CC(C)C)NC(=O)[C@@H]2CCCN2C(=O)[C@H](CC(=O)O)NC(=O)[C@H](CCCNC(=N)N)NC(=O)[C@H](Cc2ccc(O)cc2)NC(=O)[C@H](CC(C)C)NC(=O)[C@@H](NC(=O)CCC(=O)O)CSSC[C@@H](C(N)=O)NC(=O)CNC1=O` [CP8], the IC50 is 110 nM in data set [1]; 160 ± 20 nM in [2]; 1550 ± 290 nM in [3]; 540 ± 10 nM in data set [4]; 110 to 1550 nM in [7]. Further, the Kd in data set [6] lay in the range of 320 to 330 nM.

As for `CSCC[C@@H]1NC(=O)CNC(=O)CNC(=O)[C@H](C)NC(=O)[C@H](C(C)C)NC(=O)CNC(=O)[C@H](CC(C)C)NC(=O)[C@@H]2CCCN2C(=O)[C@H](CC(=O)O)NC(=O)[C@H](CCC(=O)O)NC(=O)[C@H](Cc2ccc(O)cc2)NC(=O)[C@H](CC(C)C)NC(=O)[C@H]2CCCN2C(=O)CNC(=O)CNC1=O` [CP6], the IC50 in data set [1] was 1090 ± 200 nM; in [2], 1470 ± 320 nM; in data set [3] it was 13500 ± 2170 nM; in data set [4], 2740 ± 900 nM.

`CSCC[C@@H]1NC(=O)CNC(=O)CNC(=O)[C@H](C)NC(=O)[C@H](C(C)C)NC(=O)CNC(=O)[C@H](CC(C)C)NC(=O)[C@@H]2CCCN2C(=O)[C@H](CC(=O)O)NC(=O)[C@H](CCC(=O)O)NC(=O)[C@H](Cc2ccc(O)cc2)NC(=O)[C@H](CC(C)C)NC(=O)[C@H](CO)NC(=O)[C@H](C(C)C)NC(=O)[C@H]2CCCN2C(=O)CNC(=O)[C@H](Cc2ccc(O)cc2)NC(=O)[C@H](C(C)C)NC(=O)CNC1=O` [CP4]: the IC50 came out at 100 nM in [1], 75 ± 10 nM in data set [2], 760 ± 86 nM in data set [3] and 390 ± 40 nM in data set [4]. Also, the “half-life / residence time t1/2 (range over HAs)” value in data set [6] was 2 to 16 s. Besides, the “koff (range over HAs)” value in [6] is on record as 0.04–0.32. Moreover, in [8], the “Neutralization activity against H5N1 virus (in words)” value is recorded as “complete abolishment of neutralization activity”.

Regarding `C[C@H]1O[C@@H](O[C@H]2[C@@H](O)C[C@H](O[C@H]3[C@@H](O)C[C@H](O[C@H]4CC[C@@]5(C)[C@H](CC[C@@H]6[C@@H]5C[C@@H](O)[C@]5(C)[C@@H](C7=CC(=O)OC7)CC[C@]65O)C4)O[C@@H]3C)O[C@@H]2C)C[C@H](O)[C@@H]1O` [3H-Digoxin, Digoxin, reference compound], the Papp A→B at 120 min, 30 nM in data set [5] (pig, LLC-PK1, pH 7.4) came out at 2.45 ± 0.1 ×10⁻⁶ cm/s; in the data set on P-gp (MDR1) (setting [11]) it was 0.45 ± 0.08 ×10⁻⁶ cm/s; in the data set on P-gp (MDR1) (LLC-PK1, pH 7.4, with elacridar (GF120918) 5 µM, Papp AB, + 5 µM GF120918) it was 2.98 ± 0.15 ×10⁻⁶ cm/s. Also, the efflux ratio at 120 min, 30 nM in [5] (pig, LLC-PK1, pH 7.4, Efflux ratio BA/AB, no inhibitor) was determined as 0.94; in data set [5] (pig, LLC-PK1, pH 7.4, with elacridar (GF120918) 5 µM, Efflux ratio BA/AB, + 5 µM GF120918), 0.9; in the data set with P-gp (MDR1) (LLC-PK1, pH 7.4, Efflux ratio BA/AB, LLC-MDR1, no inhibitor) it was 22.6; in the data set with P-gp (MDR1) (LLC-PK1, pH 7.4, with elacridar (GF120918) 5 µM, Efflux ratio BA/AB, LLC-MDR1, + 5 µM GF120918), 0.91. Moreover, the Papp B→A at 120 min, 30 nM turned out to be 2.31 ± 0.15 ×10⁻⁶ cm/s in data set [5] (setting [10]); 2.37 ± 0.08 ×10⁻⁶ cm/s in [5] (pig, LLC-PK1, pH 7.4, with elacridar (GF120918) 5 µM, Papp BA, + 5 µM GF120918); 10.3 ± 0.2 ×10⁻⁶ cm/s in the data set with P-gp (MDR1) (setting [12]); 2.72 ± 0.05 ×10⁻⁶ cm/s with P-gp (MDR1) (LLC-PK1, pH 7.4, with elacridar (GF120918) 5 µM, Papp BA, + 5 µM GF120918).

Regarding `CSCC[C@H](NC(=O)CNC(=O)CNC(=O)[C@H](C)NC(=O)[C@@H](NC(=O)CNC(=O)[C@H](CC(C)C)NC(=O)[C@@H]1CCCN1C(=O)[C@H](CC(=O)O)NC(=O)[C@H](CCCNC(=N)N)NC(=O)[C@H](Cc1ccc(O)cc1)NC(=O)[C@H](CC(C)C)NC(=O)[C@H](CO)NC(=O)[C@@H](NC(=O)CCC(=O)O)C(C)C)C(C)C)C(=O)NCC(=O)N[C@H](C(=O)N[C@@H](Cc1ccc(O)cc1)C(N)=O)C(C)C` [LP1], the IC50 in data set [1] was 11500 ± 2500 nM; in data set [2], 22900 ± 4140 nM; in [3] it was 47900 ± 3770 nM; in data set [7] it was 11000 to 47000 nM. Besides, in data set [6], the Kd is 3000 to 7000 nM. Besides, the “Binding to HAs of group 2 and influenza B viruses” value in [9] was “no binding was observed”.

Take `CSCC[C@@H]1NC(=O)[C@H](CCC(=O)O)NC(=O)CNC(=O)[C@H](C)NC(=O)[C@H](C(C)C)NC(=O)CNC(=O)[C@H](CC(C)C)NC(=O)[C@@H]2CCCN2C(=O)[C@H](CC(=O)O)NC(=O)[C@H](CCCNC(=N)N)NC(=O)[C@H](Cc2ccc(O)cc2)NC(=O)[C@H](CC(C)C)NC(=O)[C@@H](NC(=O)CCC(=O)O)CSSC[C@@H](C(N)=O)NC(=O)CNC1=O` [CP10] (Suc-CLYRDPLGVAGEMGC-NH2; disulfide 1-15): the IC50 in data set [1] was determined as 610 ± 80 nM; in data set [2], 2930 ± 320 nM; in data set [3], 7610 ± 1560 nM; in [4], 460 ± 40 nM.

By IC50 is commonly meant the midpoint of a concentration-inhibition curve. As a reminder, the Papp A→B is how fast a substance crosses the layer from the apical side. The term Papp B→A denotes the apparent permeability from the basolateral to the apical side of a cell layer. As usually defined, the Kd is the free concentration of one partner at which half of the binding sites on the other are occupied at equilibrium, for simple one-to-one binding. By efflux ratio is commonly meant the permeability from basolateral to apical divided by that in the opposite direction, in the common usage.
